According to patent US10729157B2, “Methods for regulating weight and size of animals” (Oragenics, Inc., priority 2004, dated 2020):
Where two headings read alike, the source gives them in different places.

Assays:
[1] = tested on: 3T3-L1 cells differentiated into adipocytes
[2] = Glycine added to the diet of laboratory animals (general statement)
[3] = From the text: Rats were randomly divided, caged separately, and fed water ad libitum and diet TD 80406 diet (Harlan Teklad, Madison, Wis.). The TD 80406 diet has about 1-2% glycine present in the lactalbumin component and is considered a non-supplemented diet.
Adult (180 day old) male Fisher rats were randomly assigned in treatment groups of 10 rats in each group to diets comprising 5% or 20% glycine in their feed or a non-supplemented diet. Animal and food weight measurements were obtained on the indicated day of the study. The analyst undertaking the weight measurement was blinded relative to the diet of the animal for which the observation was being recorded. The bars represent±1 standard error of the weights of the rats in each group on the indicated observation day.
(§1) The identical experiment was performed with female adult (180 day old) Fisher rats.

abdominal fat [4] = conditions: ZDF rats, 20% glycine diet, at necropsy
From the text: (§2) Adult male Zucker diabetic fatty (ZDF) rats were randomly assigned in treatment groups of 3 rats in each group to diets comprising 20% glycine in their feed or a non-supplemented diet. ZDF rats are obese, hyperlipidemic, and insulin resistant. Weight measurements were obtained on the indicated day of the study. The analyst undertaking the weight measurement was blinded relative to the diet of the animal for which the observation was being recorded. The bars represent±1 standard error of the weights of the rats in each group on the indicated observation day. Data was analyzed using a One-Way Analysis of Variance and subjected to post-hoc analysis using Dunnett's Multiple Comparison Test. […] Measurements of the abdominal fat content of each rat were obtained at necropsy (FIG. 7).

[5] = adult male ZDF rats, 20% glycine diet vs non-supplemented, day 15 through day 36
From the text: as §2

[6] = rats on a high glycine diet
From the text: Blood samples were withdrawn from the tail vein of the rats under study and sent to Charles River Laboratories for Mutli-Analyte Profile testing. […] Am J Physiol Regul Integr Comp Physiol, 2004. […] Nahrung, 1980. 24(7):663-71; Sugiyama et al., Dietary sulfur-containing amino acids and glycine as determinant factors in plasma cholesterol regulation in growing rats. J Nutr Sci Vitaminol (Tokyo), 1985. […] Pol J Pharmacol, 2003. […] Nutrition Research, 1999. 19(12):1777-1789; Yoshida et al., Effects of addition of arginine, cystine, and glycine to the bovine milk-simulated amino acid mixture on the level of plasma and liver cholesterol in rats. J Nutr Sci Vitaminol (Tokyo), 1988. 34(6):567-76; Olson et al., Effect of amino acid diets upon serum lipids in man. Am J Clin Nutr, 1970. […] Vopr Med Khim, 1984. 30(2):78-80; Yagasaki et al., Effects of dietary methionine, cystine, and glycine on endogenous hypercholesterolemia in hepatoma-bearing rats. J Nutr Sci Vitaminol (Tokyo), 1986. […] J Biol Chem, 1990. 265(10):5910-6.

Remark: listed apart in the source
abdominal fat [7] = conditions: adult female Sprague-Dawley rats, glycine from 5% to 20% in diet vs non-supplemented, day 30
From the text: Adult female Sprague-Dawley rats were randomly assigned in treatment groups of 3 rats in each group to diets comprising 5, 10, 15, or 20% glycine in their feed or a non-supplemented diet. The rats in each treatment group were euthanized on day 30 of the study. Measurements of the abdominal fat content of each rat were obtained at necropsy. The analyst undertaking the measurement was blinded relative to the treatment group of the animal for which the observation was being recorded. Data was analyzed using a One-Way Analysis of Variance and subjected to post-hoc analysis using Dunnett's Multiple Comparison Test.

abdominal fat [8] = tested on: abdominal fat
Description: Five rats from each treatment group were chosen at random and euthanized on day 30 of the study. Measurements of the abdominal fat content of each rat were obtained at necropsy (FIG. 2). The analyst undertaking the measurement was blinded relative to the treatment group of the animal for which the observation was being recorded. Data was analyzed using a One-Way Analysis of Variance and subjected to post-hoc analysis using Dunnett's Multiple Comparison Test.
as §1

[9] = remark: listed apart in the source
From the text: Adult female Sprague-Dawley rats were randomly assigned in treatment groups of 3 rats in each group to diets comprising 5, 10, 15, or 20% glycine in their feed or a non-supplemented diet. Weight measurements were obtained on the indicated day of the study. The analyst undertaking the weight measurement was blinded relative to the diet of the animal for which the observation was being recorded. The bars represent±1 standard error of the weights of the rats in each group on the indicated observation day. […] Data was analyzed using a One-Way Analysis of Variance and subjected to post-hoc analysis using Dunnett's Multiple Comparison Test.

BAD = tested on: BAD
Description: Adult male Sprague-Dawley rats were randomly assigned in treatment groups of 3 rats in each group to diets comprising 5% or 20% of glycine in their feed or a non-supplemented diet. On day 20 of the study the animals were euthanized and the adipose tissue obtained at necropsy. Total proteins were extracted from the adipose tissue.
Assay of the tissue extracts for the ability to phosphorylate BAD at serine position 136 was performed as follows: One mg of tissue extract was added to BAD agarose (Upstate, Waltham, Mass.). The reaction volume was adjusted to 1 ml using RIPA buffer (with anti-phosphatases and anti-proteases) (Tris-HCl [pH 7.4] 50 mM; NP-40 1%; Na deoxycholate 0.25%; NaCl 150 mM; EDTA 1 mM; PMSF 1 mM; Protease Arrest 100 ul; sodium orthovanadate 1 mM; sodium fluoride 1 mM) and incubated for 0.5 hr at 30° C. The agarose beads were collected by centrifugation (5 sec at 12,000× g). The supernatant was removed and the beads washed 3× with ice cold TBS. The BAD-agarose was resuspended in 40 μl of sample buffer, boiled for 5 min, and centrifuged (5 min at 12,000× g). Seven microliters of sample were electrophoresed on a 15% gel (Tris-Glycine). The protein was transferred by western blotting to a nitrocellulose membrane and blocked with 5% NFM in TTBS at 4° C. with shaking. The membrane was washed with 2% NFM in TTBS. Each lane was blotted with rabbit anti-phospho-BAD 136 antibody at (1:1000 in 2% NFM/TTBS) for 2 hrs at room temperature. The blots were washed three times for 5 min with TTBS. The blots were incubated with goat anti-Rabbit-HRP (1:5000 in 2% NFM/TTBS). The blots were washed 3× for 5 min with TTBS and 2× 5 min with TBS. Visualization of phosphorylated BAD was accomplished with a chemiluminesence substrate (Pierce Super-Signal Substrate™).

[10] = for size and weight after switch to diet without glycine supplementation: 4 weeks glycine diet then 10% to 0%, within one month; for growth (length) / weight gain: glycine added to diet
From the text: Animals treated for 4 weeks with diet supplemented with glycine were switched to diet containing no glycine supplementation (FIGS. 18 and 19, 10% to 0%). […] Animals treated for 4 weeks with diet supplemented with glycine were switched to diet containing no glycine supplementation (FIGS. 20 and 21, 10% to 0%).

[11] = adult female Fisher rats compared with males

blood chemistry and complete blood counts (15% glycine diet for 6 weeks vs control diet): No differences
SMILES: NCC(=O)O [glycine]
apoptosis by TUNEL staining ([1]; glycine in media equivalent to 2× the normal circulating levels in the blood, preliminary experiments): positive TUNEL staining
TUNEL staining ([1]; high concentrations of glycine in the medium vs non-treated cells): increased staining for TUNEL
weight loss ([2]; dietary glycine at high levels (20% by weight)): significant weight loss
weight ([2]; glycine added to the diet of laboratory animals, rodent strains and dogs): dose-dependent loss in weight
side-effects ([2]; optimal and super-optimal doses, prolonged administration): no deleterious side-effects
effect on weight loss and abdominal fat content [3, 11]: somewhat more pronounced in the females than in the males
weight ([3]; adult male Fisher rats, 20% glycine diet vs 5% glycine or non-supplemented diet, day 14-30): statistically lighter
weight after return to non-supplemented diet ([3]; adult male Fisher rats, 20% glycine group returned to non-supplemented diet on day 30, vs control after day 32): no statistical difference
weight at end of Recovery Phase ([3]; treated adult female Fisher rats vs control): did not rebound to the level of the control animals
abdominal fat content (abdominal fat [4]): statistically significant (p≤0.05) less abdominal fat
weight [5]: statistically significant decrease in weight
adiponectin levels [6]: increase in a manner trending towards significance
leptin levels [6]: Decrease in leptin levels, trending toward significance
serum HDL level [6]: statistically significant (p≤0.05) reduction
serum cholesterol level [6]: statistically significant (p≤0.05) reduction
serum triglyceride level [6]: statistically significant (p≤0.05) reduction
gross findings at necropsy (15% glycine and 85% TD80406 diet for 6 weeks, rats 24 days old at start): No gross lesions or treatment related abnormalities other than weight
histopathological examination of tissues (one animal fed high glycine diet, brain, lung, liver, adrenal gland, kidneys, urinary bladder, heart, stomach, intestines): no microscopic changes from normal histology
abdominal fat content (abdominal fat [7]): statistically significant less abdominal fat
reduction in abdominal fat (abdominal fat [8]; [11]): greater than that observed for the male
abdominal fat content (abdominal fat [8]; adult male Fisher rats, 20% glycine diet vs 5% glycine or non-supplemented diet, day 30): statistically significant less abdominal fat
weight ([9]; adult female Sprague-Dawley rats, 20% glycine diet vs non-supplemented, day 15 through day 36): statistically significant decrease in weight
weight loss ([9]; female Sprague-Dawley rats, high glycine in the diet): rapid significant weight loss
ability of WAT protein extracts to phosphorylate BAD at serine position 136 (BAD; WAT of treated animals, preliminary data): did not have the ability to phosphorylate BAD
phosphorylation state of BAD at tyrosine 136 (BAD; liver tissue extracts): no such decrease
phosphorylation state of BAD at tyrosine 136 (BAD; muscle extracts): no such decrease
loss of BAT tissue (BAD; preliminary experiments, glycine-fed rats): no significant loss
phosphorylation of BAD at tyrosine 136 (BAD; white adipose tissue (WAT), adult male rats, 5% or 20% glycine diet, day 20): dose dependent decrease
size and weight after switch to diet without glycine supplementation ([10]; immature female rats): same size and weight as the control animals
growth (length) ([10]; immature female rats): dose-dependent reduction
weight gain ([10]; immature female rats): dose-dependent reduction
size and weight after switch to diet without glycine supplementation ([10]; immature male rats): same size and weight as the control animals
growth (length) ([10]; immature male rats): dose-dependent reduction
weight gain ([10]; immature male rats): dose-dependent reduction
